# According to patent EP0878193A1, “REMEDIES FOR HERPESVIRUS INFECTION CAUSED BY HERPESVIRUS AND PREVENTIVES FOR RECURRENCE OF THE INFECTION BOTH CONTAINING TRITERPENE DERIVATIVES AS THE ACTIVE INGREDIENT” (Showa Shell Sekiyu K.K., priority 1996, dated 1997):
# Experiments:
# HSV-1 [1] = assay: plaque formation test (antiviral activity, CPE as index) on Vero cells; format: cell-based, herpes simplex virus type 1 (strain 7401 H); conditions: Human alphaherpesvirus 1, Vero, 50% plaque formation inhibition concentration; HSV-1 on Vero cells; three experiments; read-out: EC50 (µg/mℓ) (average ± standard deviation)
# Text: (§1) In order to examine antiviral activity, herpes simplex virus type 1 (strain 7401 H) (referred sometimes to as "HSV-1" hereinafter), TK deficiency herpes simplex virus type 1 (strain B 2006) (referred sometimes to as "TK^-" hereinafter), phosphono acetic acid (referred to as "PAA" hereinafter) resistant herpes simplex virus type 1 (PAA resistant strain derived from 7401 H) (referred sometimes to as "AP^r1" hereinafter) and herpes simplex virus type 2 (strain Ito 1262) (referred sometimes to as "HSV-2" hereinafter) were used as viruses. […]
# (§2) That is, the above-described virus solution was diluted to a concentration of 100 plaques/0.2 mℓ, the thus diluted virus solution (0.2 mℓ) was inoculated into Vero cells which have been cultured into monolayer in a plastic dish of 60 mm in diameter, and the mixture was incubated at 37°C for 1 hour to effect adsorption of viruses to the Vero cells. After the adsorption, 2% fetal bovine serum-added MEM medium (5 mℓ) containing each drug solution to be measured having varied drug concentration and 0.8% methyl cellulose was overlaid on the just described virus-adsorbed monolayer Vero cells which were subsequently cultured at 37°C for 2 to 5 days to effect plaque formation. […] The number of plaques was counted under a stereoscopic microscope. […]
# HSV-1 [2] = assay: skin infection of BALB/c mice with HSV-1, scoring of affected parts and survival; format: in vivo
# Text: In order to illustratively confirm the effect of 3-oxo-olean-18-en-28-oic acid (moronic acid) to inhibit growth of viruses after viral infection, skin cell tissues of BALB/c mice were infected with the strain HSV-1 and then the parts affected thereafter were observed and scored. The scores were made based on the average time (days ± standard deviation) until the affected parts reached score 2 (local efflorescence, bulla, erosion) or score 6 (slight shingles) and based on the survival days.
# [3] = toxicity test in non-infected mice; format: in vivo
# Experimental: Next, in order to examine toxicity of moronic acid, a toxicity test was carried out by administering control (water only) or 1 mg, 5 mg or 10 mg per kg mouse body weight of 3-oxo-olean-18-en-28-oic acid (moronic acid) to mice which have not been infected with viruses. Mice having a weight of 18 to 21 g/animal just before the commencement of the test were used in five animals per group. None of the mice died before completion of the test. 3-Oxo-olean-18-en-28-oic acid (moronic acid) was orally administered every day and three times a day.
# Vero cells = assay: cytotoxicity (observation, no method given); conditions: at the concentration by which it showed anti-herpesvirus activity
# AP^r1 [4] = assay: plaque formation test (antiviral activity, CPE as index) on Vero cells; format: cell-based; conditions: Human alphaherpesvirus 1, Vero, read-out: EC50 (µg/mℓ) (average ± standard deviation), 50% plaque formation inhibition concentration, three experiments
# Text: as §1, §2
# AP^r1 [5] = assay: viral DNA synthesis, slot-blot hybridization with radiation-labeled probe in Vero cells; format: cell-based; conditions: 0, 5, 10 or 20 µg/mℓ, even at 20 µg/mℓ, Fig. 2
# Experimental: Finally, in order to examine effects of moronic acid on the viral synthesis ability, the amount of virus particles in cultured cells was measured by the slot-blot hybridization described in J. Traditional Med., 12, 187 - 194 (1995). Using a radiation-labeled probe, viral DNA synthesis ability of herpesvirus strains HSV-1 and AP^r1 was measured just after adsorption of the viruses to animal cells (Vero cells) or when concentration of 3-oxo-olean-18-en-28-oic acid (moronic acid) was changed (0, 5, 10 or 20 µg/mℓ), with the results shown as a chart in Fig. 2 (photograph).
# In Fig. 2, rough amounts of each herpesvirus are shown by the strength of black parts. For the sake of comparison, DNA copy number of a virus TK^- is shown on the right-side column as a reference strength.
# HSV-2 = assay: plaque formation test (antiviral activity, CPE as index) on Vero cells; format: cell-based, herpes simplex virus type 2 (strain Ito 1262); conditions: Human alphaherpesvirus 2, Vero, 50% plaque formation inhibition concentration; HSV-2 on Vero cells; three experiments; read-out: EC50 (µg/mℓ) (average ± standard deviation)
# Text: as §1, §2
# [6] = Exp. 3, 1 mg/kg oral three times a day
# [7] = Exp. 3, 10 mg/kg oral three times a day
# [8] = Exp.1, 1 mg/kg oral three times a day
# [9] = Exp.2, 0.2 mg/kg oral three times a day
# [10] = Exp.2, 1 mg/kg oral three times a day
# [11] = Exp.2, 5 mg/kg oral three times a day
# [12] = Exp. 1, 1 mg/kg orally every day, three times a day, non-infected mice, five per group
compound,measurement,setting,value
"CC1(C)C=C2[C@H]3CC[C@@H]4[C@@]5(C)CCC(=O)C(C)(C)[C@@H]5CC[C@@]4(C)[C@]3(C)CC[C@@]2(C(=O)O)CC1 [Moronic acid, 3-oxo-olean-18-en-28-oic acid]",EC50,HSV-1 [1],3.9 ± 1.1 µg/mL
same,"Average time (days ± standard deviation) Score-2 (local efflorescence, bulla, erosion)",HSV-1 [2]; [6],3.80 ± 0.63 b days
same,Average time (days ± standard deviation) Score-6 (slight shingles),HSV-1 [2]; [6],5.60 ± 0.71 days
same,Average time (days ± standard deviation) Survival,HSV-1 [2]; [6],7.70 ± 2.16 days
same,"Average time (days ± standard deviation) Score-2 (local efflorescence, bulla, erosion)",HSV-1 [2]; [7],3.70 ± 0.48 b days
same,Average time (days ± standard deviation) Score-6 (slight shingles),HSV-1 [2]; [7],5.30 ± 0.48 days
same,Average time (days ± standard deviation) Survival,HSV-1 [2]; [7],6.80 ± 0.42 days
same,"Average time (days ± standard deviation) Score-2 (local efflorescence, bulla, erosion)",HSV-1 [2]; [8],3.90 ± 0.70 b days
same,Average time (days ± standard deviation) Score-6 (slight shingles),HSV-1 [2]; [8],5.70 ± 0.68 b days
same,Average time (days ± standard deviation) Survival,HSV-1 [2]; [8],7.30 ± 1.16 b days
same,"Average time (days ± standard deviation) Score-2 (local efflorescence, bulla, erosion)",HSV-1 [2]; [9],4.00 ± 0.47 d days
same,Average time (days ± standard deviation) Score-6 (slight shingles),HSV-1 [2]; [9],5.78 ± 0.97 days
same,Average time (days ± standard deviation) Survival,HSV-1 [2]; [9],6.89 ± 0.33 days
same,"Average time (days ± standard deviation) Score-2 (local efflorescence, bulla, erosion)",HSV-1 [2]; [10],3.60 ± 0.70 days
same,Average time (days ± standard deviation) Score-6 (slight shingles),HSV-1 [2]; [10],5.40 ± 0.52 days
same,Average time (days ± standard deviation) Survival,HSV-1 [2]; [10],7.00 ± 1.49 days
same,"Average time (days ± standard deviation) Score-2 (local efflorescence, bulla, erosion)",HSV-1 [2]; [11],3.90 ± 0.74 b days
same,Average time (days ± standard deviation) Score-6 (slight shingles),HSV-1 [2]; [11],5.40 ± 0.53 days
same,Average time (days ± standard deviation) Survival,HSV-1 [2]; [11],7.10 ± 1.52 days
same,Death rate,"[3]; Exp. 1, 1 mg/kg orally every day, three times a day, non-infected mice",0/5
same,(Average body weight ± standard deviation) Administration period 7 days,[3]; [12],19.8 ± 1.4
same,(Average body weight ± standard deviation) Administration period 36 days,[3]; [12],22.6 ± 0.8
same,Death rate,"[3]; Exp. 1, 5 mg/kg orally every day, three times a day, non-infected mice",0/5
same,Death rate,"[3]; Exp. 2, 10 mg/kg orally every day, three times a day, non-infected mice",0/5
same,deaths of mice,"[3]; even at the maximum concentration of 10 mg/kg, after the lapse of time of 25 days",none of the five mice died
same,(Average body weight ± standard deviation) Administration period 7 days,"[3]; mouse, in vivo, po, 5 mg/kg",19.9 ± 1.4
same,(Average body weight ± standard deviation) Administration period 36 days,"[3]; mouse, in vivo, po, 5 mg/kg",21.0 ± 0.8
same,(Average body weight ± standard deviation) Administration period 7 days,"[3]; mouse, in vivo, po, 10 mg/kg",20.1 ± 1.2
same,(Average body weight ± standard deviation) Administration period 21 days,"[3]; mouse, in vivo, po, 10 mg/kg",20.4 ± 1.0
same,cytotoxicity,Vero cells,not observed
same,EC50,AP^r1 [4],1.6 ± 0.4 µg/mL
same,effect to inhibit virus DNA synthesis,AP^r1 [5],not found
same,EC50,HSV-2,5.8 ± 0.5 µg/mL
